Data from ChEMBL document CHEMBL4316614, “Design, synthesis and biological evaluation of 1,4-dihydroxyanthraquinone derivatives as anticancer agents” (Bioorg Med Chem Lett, 2019).
Calls of active or inactive are those of the source. The rule behind the calls is not given here.

Molecular target: T1, DNA topoisomerase II (Homo sapiens, UniProt P11388+Q02880)
Experiment: Inhibition of topoisomerase 2 in human HepG2 cells assessed as reduction in cell growth measured after 72 hrs by MTT assay
Format: cell-based
Conditions: not given

SMILES	IC50
O=C1c2ccccc2C(=O)c2c(O)c(C(O)c3ccc(OC(F)(F)F)cc3)cc(O)c21 (configuration not stated)	26.5 µM
O=C1c2ccccc2C(=O)c2c(O)c(C(c3ccsc3)N(CCCl)CCCl)cc(O)c21 (configuration not stated)	13.7 µM
O=C1c2ccccc2C(=O)c2c(O)c(C(c3ccc(C(F)(F)F)cc3)N(CCCl)CCCl)cc(O)c21 (configuration not stated)	> 50 µM
O=C1c2ccccc2C(=O)c2c(O)c(C(O)c3ccc(Cl)cc3Cl)cc(O)c21 (configuration not stated)	12.5 µM
COc1ccc(C(O)c2cc(O)c3c(c2O)C(=O)c2ccccc2C3=O)cc1Br (configuration not stated)	12.8 µM

Molecular target: T1, DNA topoisomerase II
Experiment: Inhibition of topoisomerase 2 in human HeLa cells assessed as reduction in cell growth measured after 72 hrs by MTT assay
Format: cell-based
Conditions: not given

SMILES	IC50
O=C1c2ccccc2C(=O)c2c(O)c(C(O)c3ccc(OC(F)(F)F)cc3)cc(O)c21 (configuration not stated)	32 µM
O=C1c2ccccc2C(=O)c2c(O)c(C(c3ccsc3)N(CCCl)CCCl)cc(O)c21 (configuration not stated)	19.3 µM
O=C1c2ccccc2C(=O)c2c(O)c(C(c3ccc(C(F)(F)F)cc3)N(CCCl)CCCl)cc(O)c21 (configuration not stated)	> 50 µM
O=C1c2ccccc2C(=O)c2c(O)c(C(O)c3ccc(Cl)cc3Cl)cc(O)c21 (configuration not stated)	18.9 µM
COc1ccc(C(O)c2cc(O)c3c(c2O)C(=O)c2ccccc2C3=O)cc1Br (configuration not stated)	29.8 µM

Molecular target: T1, DNA topoisomerase II
Experiment: Inhibition of topoisomerase 2 in human A549 cells assessed as reduction in cell growth measured after 72 hrs by MTT assay
Format: cell-based
Conditions: not given

SMILES	IC50
O=C1c2ccccc2C(=O)c2c(O)c(C(O)c3ccc(OC(F)(F)F)cc3)cc(O)c21 (configuration not stated)	22.3 µM
O=C1c2ccccc2C(=O)c2c(O)c(C(c3ccsc3)N(CCCl)CCCl)cc(O)c21 (configuration not stated)	21.9 µM
O=C1c2ccccc2C(=O)c2c(O)c(C(c3ccc(C(F)(F)F)cc3)N(CCCl)CCCl)cc(O)c21 (configuration not stated)	> 50 µM
O=C1c2ccccc2C(=O)c2c(O)c(C(O)c3ccc(Cl)cc3Cl)cc(O)c21 (configuration not stated)	17.8 µM
COc1ccc(C(O)c2cc(O)c3c(c2O)C(=O)c2ccccc2C3=O)cc1Br (configuration not stated)	24.1 µM

Molecular target: T1, DNA topoisomerase II
Experiment: Inhibition of topoisomerase 2 in human CNE1 cells assessed as reduction in cell growth measured after 72 hrs by MTT assay
Format: cell-based
Conditions: not given

SMILES	IC50
O=C1c2ccccc2C(=O)c2c(O)c(C(O)c3ccc(OC(F)(F)F)cc3)cc(O)c21 (configuration not stated)	13.7 µM
O=C1c2ccccc2C(=O)c2c(O)c(C(c3ccsc3)N(CCCl)CCCl)cc(O)c21 (configuration not stated)	23.1 µM
O=C1c2ccccc2C(=O)c2c(O)c(C(c3ccc(C(F)(F)F)cc3)N(CCCl)CCCl)cc(O)c21 (configuration not stated)	16.1 µM
O=C1c2ccccc2C(=O)c2c(O)c(C(O)c3ccc(Cl)cc3Cl)cc(O)c21 (configuration not stated)	12.7 µM
COc1ccc(C(O)c2cc(O)c3c(c2O)C(=O)c2ccccc2C3=O)cc1Br (configuration not stated)	16.7 µM

Molecular target: T1, DNA topoisomerase II
Experiment: Inhibition of topoisomerase 2 in human MCF7 cells assessed as reduction in cell growth measured after 72 hrs by MTT assay
Format: cell-based
Conditions: not given

SMILES	IC50
O=C1c2ccccc2C(=O)c2c(O)c(C(O)c3ccc(OC(F)(F)F)cc3)cc(O)c21 (configuration not stated)	30.5 µM
O=C1c2ccccc2C(=O)c2c(O)c(C(c3ccsc3)N(CCCl)CCCl)cc(O)c21 (configuration not stated)	22.5 µM
O=C1c2ccccc2C(=O)c2c(O)c(C(c3ccc(C(F)(F)F)cc3)N(CCCl)CCCl)cc(O)c21 (configuration not stated)	> 50 µM
O=C1c2ccccc2C(=O)c2c(O)c(C(O)c3ccc(Cl)cc3Cl)cc(O)c21 (configuration not stated)	28.4 µM
COc1ccc(C(O)c2cc(O)c3c(c2O)C(=O)c2ccccc2C3=O)cc1Br (configuration not stated)	45.6 µM

Molecular target: T1, DNA topoisomerase II
Experiment: Inhibition of topoisomerase 2 in human MDA-MB-231 cells assessed as reduction in cell growth measured after 72 hrs by MTT assay
Format: cell-based
Conditions: not given

SMILES	IC50
O=C1c2ccccc2C(=O)c2c(O)c(C(O)c3ccc(OC(F)(F)F)cc3)cc(O)c21 (configuration not stated)	39.5 µM
O=C1c2ccccc2C(=O)c2c(O)c(C(c3ccsc3)N(CCCl)CCCl)cc(O)c21 (configuration not stated)	22.4 µM
O=C1c2ccccc2C(=O)c2c(O)c(C(c3ccc(C(F)(F)F)cc3)N(CCCl)CCCl)cc(O)c21 (configuration not stated)	> 50 µM
O=C1c2ccccc2C(=O)c2c(O)c(C(O)c3ccc(Cl)cc3Cl)cc(O)c21 (configuration not stated)	34.6 µM
COc1ccc(C(O)c2cc(O)c3c(c2O)C(=O)c2ccccc2C3=O)cc1Br (configuration not stated)	43.7 µM

Test system: L02
Experiment: Cytotoxicity against human L02 cells assessed as inhibition of cell growth measured after 72 hrs by MTT assay
Format: cell-based
Conditions: L02, 72 h

SMILES	IC50
O=C1c2ccccc2C(=O)c2c(O)c(C(O)c3ccc(OC(F)(F)F)cc3)cc(O)c21 (configuration not stated)	> 50 µM
O=C1c2ccccc2C(=O)c2c(O)c(C(c3ccsc3)N(CCCl)CCCl)cc(O)c21 (configuration not stated)	35.4 µM
O=C1c2ccccc2C(=O)c2c(O)c(C(c3ccc(C(F)(F)F)cc3)N(CCCl)CCCl)cc(O)c21 (configuration not stated)	> 50 µM
O=C1c2ccccc2C(=O)c2c(O)c(C(O)c3ccc(Cl)cc3Cl)cc(O)c21 (configuration not stated)	> 50 µM
COc1ccc(C(O)c2cc(O)c3c(c2O)C(=O)c2ccccc2C3=O)cc1Br (configuration not stated)	> 50 µM

Test system: HepG2
Experiment: Induction of apoptosis in human HepG2 cells measured after 48 hrs by Annexin V-APC staining based flow cytometry
Format: functional, cell-based
Conditions: not given

SMILES	Activity
O=C1c2ccccc2C(=O)c2c(O)c(C(O)c3ccc(Cl)cc3Cl)cc(O)c21 (configuration not stated)	Dose-dependent effect

Test system: HepG2
Experiment: Induction of apoptosis in human HepG2 cells assessed as apoptotic cells at 4 uM measured after 48 hrs by Annexin V-APC staining based flow cytometry (reference value: 5.37%)
Format: functional
Conditions: not given

SMILES	Activity
O=C1c2ccccc2C(=O)c2c(O)c(C(O)c3ccc(Cl)cc3Cl)cc(O)c21 (configuration not stated)	7.38%

Test system: HepG2
Experiment: Induction of apoptosis in human HepG2 cells assessed as apoptotic cells at 8 uM measured after 48 hrs by Annexin V-APC staining based flow cytometry (reference value: 5.37%)
Format: functional
Conditions: not given

SMILES	Activity
O=C1c2ccccc2C(=O)c2c(O)c(C(O)c3ccc(Cl)cc3Cl)cc(O)c21 (configuration not stated)	11.56%

Test system: HepG2
Experiment: Induction of apoptosis in human HepG2 cells assessed as apoptotic cells at 16 uM measured after 48 hrs by Annexin V-APC staining based flow cytometry (reference value: 5.37%)
Format: functional
Conditions: not given

SMILES	Activity
O=C1c2ccccc2C(=O)c2c(O)c(C(O)c3ccc(Cl)cc3Cl)cc(O)c21 (configuration not stated)	32.87%

Test system: HepG2
Experiment: Induction of apoptosis in human HepG2 cells assessed as apoptotic cells at 32 uM measured after 48 hrs by Annexin V-APC staining based flow cytometry (reference value: 5.37%)
Format: functional
Conditions: not given

SMILES	Activity
O=C1c2ccccc2C(=O)c2c(O)c(C(O)c3ccc(Cl)cc3Cl)cc(O)c21 (configuration not stated)	40.13%

Test system: HepG2
Experiment: Induction of apoptosis in human HepG2 cells assessed as cell shrinkage at 4 to 16 uM measured after 48 hrs by Hoechst 33342 staining based fluorescence microscopic analysis
Format: functional
Conditions: not given

SMILES	Activity
O=C1c2ccccc2C(=O)c2c(O)c(C(O)c3ccc(Cl)cc3Cl)cc(O)c21 (configuration not stated)	Active

Test system: HepG2
Experiment: Induction of apoptosis in human HepG2 cells assessed as formation of granular apoptotic body formation at 4 to 16 uM measured after 48 hrs by Hoechst 33342 staining based fluorescence microscopic analysis
Format: functional, cell-based
Conditions: not given

SMILES	Activity
O=C1c2ccccc2C(=O)c2c(O)c(C(O)c3ccc(Cl)cc3Cl)cc(O)c21 (configuration not stated)	Active

Test system: not listed separately
Experiment: Drug uptake in cytoplasm of human HepG2 cells at 2 to 16 uM by confocal microscopic analysis
Format: ADME, subcellular
Conditions: hepg2, 16 µM

SMILES	Drug uptake
O=C1c2ccccc2C(=O)c2c(O)c(C(O)c3ccc(Cl)cc3Cl)cc(O)c21 (configuration not stated)	Active

Test system: not listed separately
Experiment: Drug uptake in nucleus of human HepG2 cells at 2 to 16 uM by confocal microscopic analysis
Format: ADME, subcellular
Conditions: hepg2, 16 µM

SMILES	Drug uptake
O=C1c2ccccc2C(=O)c2c(O)c(C(O)c3ccc(Cl)cc3Cl)cc(O)c21 (configuration not stated)	Active

Test system: HepG2
Experiment: Induction of morphological changes in human HepG2 cells assessed as nuclear shrinkage at 2 to 16 uM by confocal microscopic analysis
Format: functional, cell-based
Conditions: not given

SMILES	Activity
O=C1c2ccccc2C(=O)c2c(O)c(C(O)c3ccc(Cl)cc3Cl)cc(O)c21 (configuration not stated)	Active

Test system: HepG2
Experiment: Induction of morphological changes in human HepG2 cells assessed as nuclear deformation at 2 to 16 uM by confocal microscopic analysis
Format: functional, cell-based
Conditions: not given

SMILES	Activity
O=C1c2ccccc2C(=O)c2c(O)c(C(O)c3ccc(Cl)cc3Cl)cc(O)c21 (configuration not stated)	Active

Test system: HepG2
Experiment: Induction of morphological changes in human HepG2 cells assessed as appearance of foamy nucleus at 2 to 16 uM by confocal microscopic analysis
Format: functional, cell-based
Conditions: not given

SMILES	Activity
O=C1c2ccccc2C(=O)c2c(O)c(C(O)c3ccc(Cl)cc3Cl)cc(O)c21 (configuration not stated)	Active
